{"source": "patent US9155761B2", "about": "“Method for the treatment of cancer” (UNIVERSITY COLLEGE CORK, NATIONAL UNIVERSITY OF IRELAND, …, priority 2009, dated 2015)", "key": {"OE21 [1]": {"tested_on": "OE21", "experimental": "(§1) Morphological features of cells treated with 5-fluorouracil (5-FU)/cisplatin, without and with 3-MA, LY294002, Bafilomycin, Lithium chloride, rapamycin or HA14-I were examined by light microscopy. Morphologies of treated cells were examined 24 and 48 hours post treatment, treatment times are referred to in figure legends. Aliquots of vehicle control and drug treated cells were cytospun onto glass slides and stained with Rapi-Diff (Braidwood laboratories, UK). The extent of apoptotic and non-apoptotic cell death was determined by counting the cells in at least three fields of view per slide, with an average of ˜100 cells per field. Apoptotic cell death is characterized by the presence of two or more of the following morphological features: cell shrinkage, chromatin condensation, DNA degradation and fragmentation into ‘apoptotic bodies’, within an intact plasma membrane. Autophagic cell death was identified by clear elevation of cytoplasmic vesicles, loss of cytoplasmic material, pyknosis of the nuclear material and an intact nuclear membrane. Cytospin images are representative of at least three independent experiments."}, "[2]": {"tested_on": "CT26 (Colorectal carcinoma cells)", "assay": "CT26 colorectal carcinoma model, intratumoural Rapamycin / 5-FU", "type": "in vivo, mice", "conditions": "intratumoural thrice weekly; Rapamycin 0.6-2 mg/kg; 5-FU 20 mg/kg"}, "OE21 [3]": {"tested_on": "OE21", "assay": "Mitochondrial depolarization, JC-1 probe", "type": "cell-based, human", "conditions": "48 hour treatment", "experimental": "(§2) Mitochondrial membrane potential was determined using the JC-1 probe (Molecular Probes). In non-apoptotic cells, JC1 accumulates as aggregates in the mitochondria, which stain red (FL2; 590 nm). At the onset of apoptosis, a loss of mitochondrial membrane potential (ΔΨm) releases the aggregated JC1, returning it to its monomeric form, which stains the cytosol green (FL1; 530 nm). Therefore, fluorescence of the JC-1 probe in the FL-2 channel decreases as mitochondrial membrane integrity is lost, while the fluorescence in FL-1 channel increases. Cells were incubated in JC1 (7.5 μg/ml) at 37° C. for 15 mins, and washed prior to analysis by flow cytometry (FACScan, Becton Dickinson). Percentages denote the proportion of cells with depolarised mitochondria following 48 hour incubation with 5-Fluorouracil and represent at least three independent experiments."}, "OE19 [4]": {"tested_on": "OE19", "assay": "Mitochondrial depolarization, JC-1 probe", "type": "cell-based, human", "conditions": "48 hour treatment", "experimental": "as §2"}, "KYSE450 [5]": {"tested_on": "KYSE450", "assay": "Mitochondrial depolarization, JC-1 probe", "type": "cell-based, human", "conditions": "48 hour treatment", "experimental": "as §2"}, "OE33 [6]": {"tested_on": "OE33", "assay": "Mitochondrial depolarization, JC-1 probe", "type": "cell-based, human", "conditions": "48 hour treatment", "experimental": "as §2"}, "[7]": {"tested_on": "active caspase-3 in OE33 cells", "assay": "Active caspase-3 by flow cytometry", "type": "cell-based, human", "conditions": "48 hours after treatment", "experimental": "(§3) To examine control and 5-Fluorouracil treated cells for evidence of caspase activity cells were processed by trypsinization, 48 hours after treatment. […] This was detected with an anti rabbit FITC conjugated secondary antibody, and samples were analyzed by FACScan at 530 nm (FL-1). Percentages indicate the proportion of cells with active caspase-3, detected as an increase in the number of FITC (FL-1) labelled cells."}, "[8]": {"tested_on": "active caspase-3 in KYSE450 cells", "assay": "Active caspase-3 by flow cytometry", "type": "cell-based, human", "conditions": "48 hours after treatment, range of concentrations", "experimental": "as §3"}, "[9]": {"tested_on": "active caspase-3 in OE19 cells", "assay": "Active caspase-3 by flow cytometry", "type": "cell-based, human", "conditions": "48 hours after treatment", "experimental": "as §3"}, "[10]": {"tested_on": "active caspase-3 in OE21 cells", "assay": "Active caspase-3 by flow cytometry", "type": "cell-based, human", "experimental": "as §3"}, "[11]": {"tested_on": "CT26 (Colorectal carcinoma cells)", "assay": "CT26 colorectal carcinoma model, intratumoural 5-FU / Lithium Chloride", "type": "in vivo, mice", "conditions": "intratumoural thrice weekly; Lithium Chloride 200 mg/kg; 5-FU 20 mg/kg"}, "OE21 [12]": {"tested_on": "OE21", "assay": "Electron microscopy", "type": "cell-based, human", "conditions": "5-FU (25 μM), 48 hours", "experimental": "(§4) Cells were seeded on semi-porous membranes and incubated in 5-Fluoruracil (5-FU) for 48 hours. Cells were then fixed in a […] phosphate buffer (pH 7.4), containing 2.0% glutaraldehyde, at room temperature (RT) for 40 minutes. Cells were post-fixed in Osmium tetroxide (OsO4) at RT for 60 minutes, dehydrated in ascending grades of ethanol solutions (50%, 70%, 95%, 100% and 100% dry), prior to embedding in Araldite resin. Samples were subjected to a graded infiltration process with araldite (epoxy resin) before being set and sectioned. Representative areas were chosen for ultra-thin sectioning and samples were examined by electron microscopy."}, "OE19 [13]": {"tested_on": "OE19", "assay": "Electron microscopy", "type": "cell-based, human", "conditions": "5-FU (25 μM), 48 hours", "experimental": "as §4"}, "OE19 [14]": {"tested_on": "OE19", "assay": "Evaluation of cell death morphology by light microscopy", "type": "cell-based, human", "conditions": "5-FU (50 μM) or cisplatin (40 μM), 48 hours", "experimental": "as §1"}, "KYSE450 [15]": {"tested_on": "KYSE450", "assay": "Evaluation of cell death morphology by light microscopy", "type": "cell-based, human", "experimental": "as §1"}, "OE33 [16]": {"tested_on": "OE33", "assay": "Evaluation of cell death morphology by light microscopy", "type": "cell-based, human", "conditions": "5-FU (50 μM) or cisplatin (40 μM), 48 hours", "experimental": "as §1"}, "OE21 [17]": {"tested_on": "OE21", "assay": "Monodansylcadaverine (MDC)-labelled vacuoles", "type": "cell-based, human", "conditions": "25 μM", "experimental": "(§5) MDC is an autofluorescent weak base that accumulates in acidic lysosomal vacuoles, showing high selectivity for autophagosomes, due to the high level of unhydrolyzed membrane lipids from engulfed organelles, which enhance MDC fluorescence. Cells were incubated with 0.1 mM MDC in PBS at 37° C. for 10 minutes (Biederbick et al., 1995), washed and immediately analyzed by fluorescent microscopy."}, "OE19 [18]": {"tested_on": "OE19", "assay": "Monodansylcadaverine (MDC)-labelled vacuoles", "type": "cell-based, human", "conditions": "25 μM", "experimental": "as §5"}, "KYSE450 [19]": {"tested_on": "KYSE450", "assay": "Monodansylcadaverine (MDC)-labelled vacuoles", "type": "cell-based, human", "conditions": "25 μM", "experimental": "as §5"}, "OE33 [20]": {"tested_on": "OE33", "assay": "Monodansylcadaverine (MDC)-labelled vacuoles", "type": "cell-based, human", "conditions": "25 μM", "experimental": "as §5"}, "[21]": {"conditions": "5-FU (50 μM) or cisplatin (40 μM), 48 hours"}}, "note": "“Also recorded” adds a separate entry of the source."}
{"smiles": "O=c1[nH]cc(F)c(=O)[nH]1", "note": "[5-FU, 5-fluorouracil]", "values": [{"measurement": "cell death morphology", "setting": "OE21 [1]; [21]", "value": "predominantly apoptotic cell death morphology"}, {"measurement": "autophagic cells as a minor population", "setting": "OE21 [1]; 5-FU treated OE21 cells (FIG. 1c)", "value": 7, "unit": "%"}, {"measurement": "survival: day beyond which no animal of the group is alive / final animal euthanized", "setting": "[2]", "value": 33, "unit": "days"}, {"measurement": "mitochondrial depolarization (JC-1)", "setting": "OE21 [3]", "value": "significant mitochondrial depolarization"}, {"measurement": "mitochondrial depolarization (JC-1)", "setting": "OE19 [4]", "value": "do not show caspase-3 activity or mitochondrial membrane depolarization"}, {"measurement": "mitochondrial depolarization (JC-1)", "setting": "KYSE450 [5]", "value": "do not show caspase-3 activity or mitochondrial membrane depolarization; also recorded: do not exhibit membrane depolarization"}, {"measurement": "mitochondrial depolarization (JC-1)", "setting": "OE33 [6]", "value": "mitochondrial depolarization"}, {"measurement": "active caspase-3", "setting": "[7]", "value": "displayed active caspase-3"}, {"measurement": "active caspase-3", "setting": "[8]", "value": "do not show caspase-3 activity; also recorded: fail to show any active caspase-3"}, {"measurement": "active caspase-3", "setting": "[9]", "value": "do not show caspase-3 activity"}, {"measurement": "proportion of cells with active caspase-3", "setting": "[10]; 5-FU (25 μM/50 μM), 48 hours", "value": 44, "unit": "%"}, {"measurement": "active caspase-3", "setting": "[10]; 48 hours after treatment", "value": "displayed active caspase-3"}, {"measurement": "survival: day beyond which no animal of the group was alive / final animal euthanized", "setting": "[11]", "value": 33, "unit": "days"}, {"measurement": "ultra structural features (electron microscopy)", "setting": "OE21 [12]", "value": "morphological changes consistent with classical apoptotic cell death"}, {"measurement": "ultra structural features (electron microscopy)", "setting": "OE19 [13]", "value": "numerous cytoplasmic vacuoles are evident"}, {"measurement": "cell death morphology", "setting": "OE19 [14]", "value": "predominantly non-apoptotic morphology"}, {"measurement": "cell death morphology", "setting": "KYSE450 [15]; [21]", "value": "predominantly non-apoptotic morphology"}, {"measurement": "morphology", "setting": "KYSE450 [15]; HA14-1 (5 μM) and/or 5-FU (50 μM), 24 hours", "value": "causes autophagic phenotype"}, {"measurement": "cell death morphology", "setting": "OE33 [16]", "value": "predominantly apoptotic cell death morphology"}, {"measurement": "MDC staining pattern", "setting": "OE21 [17]", "value": "MDC staining patterns are diffuse"}, {"measurement": "MDC staining pattern", "setting": "OE19 [18]", "value": "accumulation of MDC (bright blue punctate staining) throughout the cytoplasm"}, {"measurement": "MDC staining pattern", "setting": "KYSE450 [19]", "value": "accumulation of MDC (bright blue punctate staining) throughout the cytoplasm"}, {"measurement": "MDC staining pattern", "setting": "OE33 [20]", "value": "MDC staining patterns are diffuse"}]}
